The values that follow come from patent US7943338B2, “Autoimmune conditions and NADPH oxidase defects” (Arexis AB, priority 2002, dated 2011).

For data set [1], the system named is DA and DA.E3chr12 rats. Particulars: PIA. The method, then: Arthritic development was monitored in all limbs using a macroscopic scoring system. Briefly, 1 point was given for each swollen or red toe, 1 point for each swollen midfoot, digit, or knuckle, and 5 points for a swollen ankle. The maximum score for a limb was 15 points, and the maximum score for a rat was 60 points.
For administration, 50 mg of DPI was dissolved in 250 mL DMSO/PBS. About 0.5 mL was injected intraperitoneally into rats on day 0, 2, 3, 4, 5, 6, 7, 8, 10, 12, 14, 17, 19, and 21.
Arthritis development was monitored in all limbs.

Data set [2] has as its system mice. Particulars: daily intraperitoneal 2.8 μmol/kg (880 μg/kg); cited from earlier work.
Data set [3] relates to DA rats. The data set is described as follows: Arthritis-inducing effect of oils injected intradermally at the base of the tail. The data set is classed as in vivo, Rat (Rattus norvegicus). The conditions noted are these: oil injected intradermally at base of tail, scored days 12-31, FIG. 10. From the text:
The arthritis-inducing effects of the oils was examined by injecting the oils intradermally into DA rats. […] Note that p<0.05 for alkanes shorter than C15 compared to C19. All statistics evaluated with student's t-test. N=4 for all groups.

The subject of data set [4] is NADPH complex. Put plainly: Oxygen burst studies, activation of NADPH complex (cell type not stated). Particulars: oxygen burst studies / WST-1 assay. In kind it is cell-based. The protocol: The unsaturated fatty acids C14:1-C24:1 (myristoleic acid, palmitoleic acid, oleic acid, linoleic acid, linolenic acid, 11c-eicosenoic acid, arachidonic acid, erucic acid, and neuronic acid) and squalenee (Sigma) were also tested.
(§1) 10 μL of each of the oils to be tested was added with 9 μL of WST1 to the wells of a 96 well microtitre plate. 10^6 cells/mL (100 μL of 10^7 cells/mL) were added to each well and the color change measured in a spectrophotometer at 450 nm at 37° for 60 minutes (one measurement/min).
10 μL each of the oils to be tested were added to the wells of a 96 well microtitre plate. 50 μL of cytochrome C (4 mg/mL) and […] (50 μL of 10^7 cells/mL) were added to each well and the absorbance measured in a spectrophotometer at 550 nm at 37° C. for 60 minutes (one measurement/minute).

A short description of data set [5]: In vivo distribution of 14C-labeled oils. Also noted: species or system Rat (Rattus norvegicus). The conditions noted are these: for arthritis in rats treated with radioactively-labeled oils: 200 μL i.d. at base of tail, DA rats, FIG. 13; for extent of distribution to the lymph nodes: hexadecane compared with oleic acid. The protocol:
[1-14C]-Hexadecane and [1-14C]-Oleic acid were purchased from Amersham. The oils were injected intradermally at the base of the tail in 18 DA rats (200 μL). At day 10, the organs (lymph nodes, spleen, liver and kidney) of three rats from each group were collected. The organs were weighed and homogenized in a total volume of 2 mL PBS and frozen. The same procedure was followed at day 20 and at day 30. 1 mL of the homogenised samples was then added to 10 mL Ready Safe (Beckman) and counted in a beta counter. The distribution of radioactive labelled hexadecane to the lymph nodes was also inspected at earlier time points (day 3, day 6, day 10, and day 13).

Data set [6] deals with DA rats. Put plainly: Treatment of hexadecane-induced arthritis with hexadecene. The data set is classed as in vivo, Rat (Rattus norvegicus). The conditions noted are these: rat, in vivo. The method, then: Groups of DA rats were injected i.d. at the base of the tail as follows: • Hexadecane 200 μL day 0; • Hexadecene 200 μL day 0; • Hexadecene 200 μL day −5, Hexadecane 200 μL day 0; • Olive oil 200 μL day −5, Hexadecane 200 μL day 0; • Hexadecene 200 μL day +5, Hexadecane 200 μL day 0; and • Olive oil day 200 μL +5, Hexadecane 200 μL day 0.
The rats were scored as indicated above. Olive oil was used as a control.

The conditions of data set [7]: in vivo; cited from earlier work.
The conditions of data set [8]: in vivo; cited from earlier work. This is another data set of the same source.
Data set [9] relates to DA rats. The data set is described as follows: Treatment/prevention of pristane-induced arthritis with undecane. The data set is classed as in vivo, Rat (Rattus norvegicus). The method, then: Groups of DA rats were injected intradermally at the base of the tail with 200 μL of the oils as indicated below: • Undecane day −10, […] day 0; • Olive oil day −10, […] day 0; • Undecane day −5, […] day 0; • Undecanol day −5, […] day 0; Olive oil day −5, […] day 0; • Undecane day 5, […] day 0; and • Olive oil day 5, […] day 0.
The rats were scored every other day starting at day 11 according to the extended scoring system where every red or swollen toe or mid foot scored one point, and a red and swollen ankle scored five points, yielding a total of 15 points/limb and 60 points/rat. Olive oil and undecanol were used as controls.

Data set [10] has as its system NADPH complex. The data set is described as follows: Oxidative burst WST-1 assay, E3 rat peritoneal cells. In kind it is cell-based. Particulars: peritoneal cells from E3 rat after thioglycolate; FIG. 9A. The method, then: The unsaturated fatty acids C14:1-C24:1 (myristoleic acid, palmitoleic acid, oleic acid, linoleic acid, linolenic acid, 11c-eicosenoic acid, arachidonic acid, erucic acid, and neuronic acid) and squalenee (Sigma) were also tested. The oils were solubilized by dilution in cyclodextrin (100 mM in PBS).
5 mL thioglycolate (2.4%) was injected intraperitoneally in E3 rats to elicit recruitment of neutrophils 16 hours before sacrifice. 40 mL PBS+hepes (1%) was injected into the peritoneum and the cell suspension extracted. Red blood cells were lysed with 0.84% NH4Cl, and WBC were washed in PBS and resuspended in PBS at a concentration of about 10^7 cells/mL.
as §1
On the technique in general: Tetrazolium assays rely on reduction of a dye to a coloured formazan, in cell work by metabolically active cells.

The test system of data set [11] is DA rats. The data set is described as follows: Treatment of active PIA with phytol or undecane. Particulars: 200 μL i.p. or i.d. at day 21 and day 26; FIG. 23. In kind it is in vivo, Rat (Rattus norvegicus). The method, then:
Groups of DA rats were injected with […] at day 0. The […] (150 μL) was injected intra-dermal at the base of the tail. The rats were scored from day 9 using the extended scoring system (see above). Then, the rats were treated at day 21 and at day 26 with one of the following alternatives: (1) 200 μL phytol intra-peritoneal; (2) 200 μL phytol intra-dermal at the base of the tail; (3) 200 μL undecane intra-peritoneal; (4) 200 μL undecane intra-dermal at the base of the tail; or (5) control untreated.

The target of data set [12] is T1, NADPH complex (Homo sapiens, UniProt P14598).
T1 construct: endogenous in cells; host or cells: HL60 cells differentiated with 1.25% DMSO
T1 sequence (P14598 1-390): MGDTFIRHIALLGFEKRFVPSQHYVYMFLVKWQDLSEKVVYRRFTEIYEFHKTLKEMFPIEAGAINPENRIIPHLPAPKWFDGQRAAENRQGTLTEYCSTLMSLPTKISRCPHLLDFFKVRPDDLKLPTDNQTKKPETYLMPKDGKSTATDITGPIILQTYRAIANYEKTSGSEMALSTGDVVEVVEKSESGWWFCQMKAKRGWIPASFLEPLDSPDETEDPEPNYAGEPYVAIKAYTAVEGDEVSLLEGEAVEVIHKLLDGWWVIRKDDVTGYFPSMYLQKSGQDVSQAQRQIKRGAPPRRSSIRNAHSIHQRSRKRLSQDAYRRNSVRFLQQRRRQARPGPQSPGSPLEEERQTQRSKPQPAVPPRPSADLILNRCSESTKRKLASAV
The data set is described as follows: Oxidative burst WST-1 assay, HL60 cells. The data set is classed as cell-based. Particulars: FIG. 9B. The method, then: The unsaturated fatty acids C14:1-C24:1 (myristoleic acid, palmitoleic acid, oleic acid, linoleic acid, linolenic acid, 11c-eicosenoic acid, arachidonic acid, erucic acid, and neuronic acid) and squalenee (Sigma) were also tested. The oils were solubilized by dilution in cyclodextrin (100 mM in PBS). Human […] cell line HL60 was cultured in Dulbeccos complete medium with Hepes, 10% Fetal calf serum, and Penicillin-Streptomycin. HL60 cells differentiated to neutrophil-macrophages six days after addition of 1.25% DMSO. The cells were spun down at 1200 rpm for 5 minutes and then washed with PBS twice. The cells were then resuspended in PBS to a concentration of about 10^7 cells/mL. 10 μL of each of the oils to be tested was added with 9 μL of WST1 to the wells of a 96 well microtitre plate. 10^6 cells/mL (100 μL of 10^7 cells/mL) were added to each well and the color change measured in a spectrophotometer at 450 nm at 37° for 60 minutes (one measurement/min).

Entries after “also recorded” stand apart in the source; their conditions may differ.

Regarding `c1ccc2c(c1)[I+]c1ccccc1-2` [DPI, diphenyleneiodonium chloride], the severity of arthritis entry in [1] (DPI 1.25 μmol/kg i.p. on days 0-21, FIG. 6) is “increased severity of arthritis”. Moreover, in [1] (DPI-treated vs control rats, FIG. 7), the accumulated arthritis scores entry was “greater accumulated arthritis scores than control rats”. Moreover, the reduction of arthritis in [2] is on record as 50%.

`CCCCCCCCCCCCCCCCC` [heptadecane]: the arthritis induction result in data set [3] was “induce arthritis”. Besides, the “activation of the NADPH complex” value in [4] is given as “activate the NADPH complex”.

Take `CCCCCCCC/C=C\CCCCCCCC(=O)O` [oleic acid]: in data set [5], the “arthritis in rats treated with radioactively-labeled oils” value is given as “does not induce arthritis” and the “extent of distribution to the lymph nodes” value is recorded as “not distributed to the lymph nodes to as high an extent as the hexadecane”.

In the case of `CCCCCCCCCCCCCCC` [Pentadecane, pentadecane], the arthritis induction entry in data set [3] is reported as “did induce arthritis”. Also, the “activation of the NADPH complex” value in data set [4] is recorded as “did not activate the NADPH complex”.

For `CCCCCCCCCCCCCCCC` [hexadecane], in [3], the arthritis induction entry is given as “induced arthritis”. In data set [6], the arthritis-inducing capacity entry is given as “induces arthritis”. Besides, in data set [5], the “arthritis in rats treated with radioactively-labeled oils” value is reported as “only the rats injected with hexadecane had arthritis” and the “extent of distribution to the lymph nodes” value is listed as “higher extent than oleic acid”. Moreover, the “time of maximum accumulation in the lymph nodes” value in data set [5] (FIG. 15) came out at 10 days. Besides, the “time course of accumulation in the lymph nodes” value in data set [5] (days 3, 6, 10, 13 and later, FIG. 15) was “increase in the accumulation of hexadecane in the lymph nodes until day 10; also recorded: slowly decreased”. The “activation of the NADPH complex” value in [4] was “activated the complex”. Also, the “distribution of 14C-labeled hexadecane” value in data set [7] is recorded as “disseminated predominantly to the lymph nodes”. In addition, the arthritis induction result in [8] is given as “induce arthritis”.

With `CCCCCCCCCCCCCCCCCC` [octadecane], the arthritis induction entry in [3] is “induce arthritis”. The “activation of the NADPH complex” value in [4] was “activate the NADPH complex”.

Regarding `CCCCCCCCCCC` [undecane], the “additive score and maximum score of PIA, undecane vs olive oil” value in [9] (200 μL i.d. day -5, pristane day 0, p<0.05, FIG. 11B, 11C) is “significant difference”. For the same molecule, the “additive score and maximum score of PIA, undecane vs undecanol” value in data set [9] (200 μL i.d. day -5, pristane day 0, p=0.05 additive, p<0.05 maximum) is on record as “significant difference”. For the same molecule, the “arthritis score / preventive effect, undecane day +5 compared with day -10 or day -5” value in data set [9] (200 μL i.d., pristane day 0) was “slightly higher score; also recorded: did not show as significant a preventive effect as at day −10 or at day −5”. Further, the arthritis induction result in [3] is reported as “did not induce arthritis”. Besides, the “activation of the oxidative burst (WST-1 assay)” value in data set [10] and in [12] was “potent activator” each time. The “activation of the NADPH complex” value in data set [4] is on record as “activated the NADPH complex”. Moreover, in data set [11], the “effect on active arthritis in PIA rat model” value was “effective against active arthritis”.
